Results on 2 compounds are retold here after article PMC9326219, “Design and Synthesis of 1-O- and 6′-C-Modified Heparan Sulfate Trisaccharides as Human Endo-6-O-Sulfatase 1 Inhibitors” (Frontiers in Chemistry, 2022).

Test [1] concerns the target T1, human endo-6-O-sulfatase 1 (Sulf-1) (Homo sapiens, UniProt Q8IWU6).
T1 construct: gene SULF1
Nature of the test: fluorescent 4-MUS hydrolysis assay with purified human Sulf-1; kinetic fit to competitive model (IC50 […]). In kind it is biochemical.

In test [2] the target is T1, human endo-6-O-sulfatase 1 (Sulf-1). Nature of the test: fluorescent 4-MUS hydrolysis assay with purified human Sulf-1. In kind it is biochemical.

In turn, `CO[C@@H]1O[C@@H](C(=O)O)[C@@H](O[C@H]2O[C@H](COS(N)(=O)=O)[C@@H](O[C@@H]3O[C@@H](C(=O)O)[C@@H](O)[C@H](O)[C@H]3OS(=O)(=O)O)[C@H](O)[C@H]2NS(=O)(=O)O)[C@H](O)[C@H]1OS(=O)(=O)O` [compound 5, IdoA2OS-GlcNS6OSO2NH2-IdoA2OS-OMe] had a Ki in test [1] of 140 nM. Consider `CO[C@@H]1O[C@@H](C(=O)O)[C@@H](O[C@H]2O[C@H](CNS(=O)(=O)O)[C@@H](O[C@@H]3O[C@@H](C(=O)O)[C@@H](O)[C@H](O)[C@H]3OS(=O)(=O)O)[C@H](O)[C@H]2NS(=O)(=O)O)[C@H](O)[C@H]1OS(=O)(=O)O` [compound 6, IdoA2OS-GlcNS6NS-IdoA2OS-OMe], for which the IC50 in test [2] was determined as 4600 nM.
